{
  "source": "patent US10184115B2",
  "about": "“Mutated cellobiose dehydrogenase with increased substrate specificity” (DIRECTSENS GMBH, priority 2012, dated 2019)",
  "biological_target": "T1, Myriococcum thermophilum cellobiose dehydrogenase (CDH, SEQ ID NO: 1) variant W316L (Thermothelomyces myriococcoides, UniProt A9XK88, W316L)",
  "T1 sequence (A9XK88 22-828 W316L)": "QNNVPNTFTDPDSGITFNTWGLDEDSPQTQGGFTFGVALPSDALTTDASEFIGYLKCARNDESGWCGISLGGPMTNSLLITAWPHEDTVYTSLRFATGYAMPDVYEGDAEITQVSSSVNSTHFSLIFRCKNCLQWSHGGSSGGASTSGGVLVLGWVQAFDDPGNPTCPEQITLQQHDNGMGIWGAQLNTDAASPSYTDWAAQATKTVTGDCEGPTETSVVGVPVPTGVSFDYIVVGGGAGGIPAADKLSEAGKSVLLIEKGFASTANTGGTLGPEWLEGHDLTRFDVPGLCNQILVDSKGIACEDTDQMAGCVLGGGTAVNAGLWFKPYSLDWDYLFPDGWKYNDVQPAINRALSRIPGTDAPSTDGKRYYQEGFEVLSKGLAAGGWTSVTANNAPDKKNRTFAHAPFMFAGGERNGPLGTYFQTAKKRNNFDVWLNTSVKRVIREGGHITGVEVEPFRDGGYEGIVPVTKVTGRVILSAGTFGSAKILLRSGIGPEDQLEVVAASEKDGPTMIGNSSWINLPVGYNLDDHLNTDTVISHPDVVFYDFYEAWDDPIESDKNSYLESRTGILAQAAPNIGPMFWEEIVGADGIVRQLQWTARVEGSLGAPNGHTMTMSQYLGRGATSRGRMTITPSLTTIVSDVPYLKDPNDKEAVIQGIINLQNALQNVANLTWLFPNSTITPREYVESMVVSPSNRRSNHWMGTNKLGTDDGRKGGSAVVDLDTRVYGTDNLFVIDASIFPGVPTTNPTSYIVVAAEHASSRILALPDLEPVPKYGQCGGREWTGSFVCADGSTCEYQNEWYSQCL",
  "experiment": "Steady-state kinetics, DCIP assay: M. thermophilum CDH W316L",
  "assay_type": "biochemical",
  "details": "apparent, pH 4.5, 30° C.",
  "experimental": "Enzyme activity was assayed at 30° C. using either the DCIP (Karapetyan et al., 2005 Journal of Biotechnology 121: 34-48) or cytochrome c (Canevascini et al., 1991, European Journal of Biochemistry 198: 43-52) as electron acceptor. […] Stock solutions of carbohydrates used for kinetic measurements were prepared in the respective buffer and allowed to stand overnight for mutarotation, while stock solutions of electron acceptors were prepared in water and immediately used. The reaction stoichiometry is 1 for the two-electron acceptor DCIP (1 mole of DCIP reduced per mole of carbohydrate oxidized), but 2 for the one-electron acceptor cytochrome c. Kinetic constants were calculated by fitting the observed data to the Henri-Michaelis-Menten equation or to the adapted model for substrate inhibition using nonlinear least-squares regression and the program SigmaPlot (Systat Software, San Jose, Calif., USA). […]\nRecombinant wild-type CDH as well as variants were produced in 1 L baffled flasks. […] Increase in activity was monitored using the DCIP and the cytochrome c enzyme assays. […]\nThe sample was loaded on a 20 mL PHE Sepharose FF column (HR26/20) equilibrated with 50 mM Na-acetate buffer pH 5.5 containing 20% ammonium sulfate. […] Fractions were tested for CDH activity and pooled according to the highest Reinheitszahl (RZ, calculated from the absorbance ratio 420 nm/280 nm). […]",
  "data": [
    {"smiles": "OC[C@H]1O[C@H](O[C@H]2[C@H](O)[C@@H](O)C(O)O[C@@H]2CO)[C@H](O)[C@@H](O)[C@@H]1O", "note": "(some centres unmarked) [Maltose, maltose]", "values": [
      {"measurement": "kcat/KM", "value": 2.6, "unit": "M⁻¹ s⁻¹"},
      {"measurement": "kcat", "setting": "~ values only estimated by non linear regression", "value": 0.59, "unit": "s⁻¹"}
    ]}
  ]
}
